Patent publication US6808724B2, “Artemisolide compound isolated from the aerial parts of Artemisia sylvatica, isolation method, and use thereof” (Korea Research Institute of Bioscience and Biotechnology, priority 2002, dated 2004)

What was measured:
mice = test: Toxicity test in mice; assay type: in vivo
Method: The compound expressed by the formula 1 was dissolved in dimethyl sulfoxide (DMSO). The solution was diluted with water and administered to mice (10 heads per group) by 100 μg/kg.

HL-60 cell = test: Leukemia cell growth inhibition, HL-60; assay type: cell-based; conditions: Homo sapiens, read-out: GI50, the concentration when the cancer cell growth is inhibited by 50%
Method: (§1) After removing all medium from the 96-well plate, […] of the new compound was added to each well. After 48 hr of culture, WST-1 was added to each well. Then the culture plate was placed for 3 hr at 37° C. in the presence of 5% CO2. When the reaction was completed, light absorption at 450-690 nm was measured by using an ELISA reader to identify the cancer cell growth inhibition effect.

[1] = system: H-ras (H-ras gene transformed NIH3T3 cell); test: Cell growth inhibition (WST-1), H-ras; assay type: cell-based; conditions: Mus musculus, 48 hr culture, read-out: GI50, the concentration when the cancer cell growth is inhibited by 50%
Method: (§2) NIH3T3 (mouse fibroblast), K-ras (K-ras gene transformed NIH3T3 cell), H-ras (H-ras gene transformed NIH3T3 cell) and SW620 (human colon cancer cell) solid tumor cell lines were cultured in 10% of bovine serum albumin or RPMI 1640 medium (containing L-glutamine and not containing sodium bicarbonate; Gibco Cat. No 31800-022) under 37° C. and 5% CO2 condition. The subculture was carried out 2 times a week. The cells were separated from the wall using 0.5% of trypsin and 5.3 mM EDTA (ethylenediamine tetra acetic acid) dissolved in phosphate buffer solution (PBS). In each well of 96-well plate (Falcon), 3×10^3-6×10^3 cells were added and cultured at 37° C. in the presence of 5% CO2 of medium for 24 hr. The new compound was dissolved in dimethyl sulfoxide (DMSO) and diluted to the concentration required for the test. The final concentration of DMSO was set to be lower than 0.5%.
as §1

[2] = Physical and chemical properties: solubility in solvents; assay type: physicochemical
Method: The structure of the obtained white powder compound was analyzed by NMR. The compound is expressed by Formula 1 (molecular formula=C25H32O4; molecular weight=396.52).

[3] = system: SW620 (human colon cancer cell); test: Cell growth inhibition (WST-1), SW620; assay type: cell-based; conditions: SW-620, 48 hr culture, read-out: GI50, the concentration when the cancer cell growth is inhibited by 50%
Method: as §2, §1

farnesyl transferase = target: T1, farnesyl transferase (Rattus norvegicus, UniProt Q02293+Q04631); test: Farnesyl transferase inhibition, scintillation proximity assay with 3H-FPP and biotin-lamin B peptide; assay type: biochemical
T1 construct: 100-150 g of brain was separated from a male rat (Sprague Dowley); from tissue; host or cells: rat (Sprague Dawley) brain
Method: 100-150 g of brain was separated from a male rat (Sprague Dowley). It was washed with a physiological salt solution and homogenized. Then, farnesyl transferase enzymogen was separated by centrifuging and partially purifying the homogenate with a Q Sepharose Fast Flow Column. The enzyme activity was determined by scintillation proximity assay (SPA), using the ^3H-farnesyl pyrophosphate (FPP) substrate.
To be specific, the method of Michael S. Brown, etc. (Yuval Reiss, Joseph L. Goldstein, Miguel C. Seabra, Patrick J. Casey and Michael S. Brown, 1990, Inhibition of Purified p21ras Farnesyl Protein Transferase by Cys-AAX Tetrapeptides, 62, 81-88) was modified a little. 10 μl of the sample liquid, 10 μl of analysis buffer solution (50 mM Tris-HCL pH7.5, 25 mM MgCl2, 2 mM KCl, 5 mM DTT, 5 mM Na2HPO4, 0.01% Triton X-100), 20 μl of diluted ^3H-FPP, 20 μl biotin-lamin B peptide and 40 μl of farnesyl transferase were mixed well and rendered to react for 30 min at room temperature. Then, 150 μl of SPA bead/stop reagent solution was added. The farnesylation level of biotin-lamin B peptide was measured by using a scintillation counter in CPM (counts per minute) unit. The farnesyl transferase activity inhibition was calculated via Equation 1. [formula] […]

[4] = system: K-ras (K-ras gene transformed NIH3T3 cell); test: Cell growth inhibition (WST-1), K-ras; assay type: cell-based; conditions: Mus musculus, 48 hr culture, read-out: GI50, the concentration when the cancer cell growth is inhibited by 50%
Method: as §2, §1

Molt-4 cell = test: Leukemia cell growth inhibition, Molt-4; assay type: cell-based; conditions: Homo sapiens, read-out: GI50, the concentration when the cancer cell growth is inhibited by 50%
Method: as §1

[5] = system: NIH3T3 (mouse fibroblast); test: Cell growth inhibition (WST-1), NIH3T3; assay type: cell-based; conditions: 48 hr culture, read-out: GI50, the concentration when the cancer cell growth is inhibited by 50%
Method: as §2, §1

With `C=C1C(=O)O[C@@H]2[C@@H]1CC[C@](C)(O)C13C=CC(C)([C@@H]21)[C@]1(C3)C(=O)C[C@@]2(C(C)C)C[C@H]21` (some centres unmarked) [Formula 1, Artemisolide] the “acute toxicity in the animal test” value (mice) was “no acute toxicity”, the GI50 (HL-60 cell) was ~1.5 µM and the GI50 [1] was 1.2 µg/mL. For the same compound, the “Insoluble in” value [2] was “Hexane”, the “Soluble in” value [2] was “MeOH; acetone; EtOAc” and the GI50 [3] was 2.5 µg/mL. The inhibition at 100 µg/mL (farnesyl transferase; at 100 μg/ml) was ~50%, the IC50 (farnesyl transferase; read-out: IC50 (concentration for inhibiting activity by 50%) on farnesyl transferase (converted)) was ~252 µM and the GI50 [4] was ~0.8 µg/mL. For the same compound, the GI50 (Molt-4 cell) was 3.2 µM and the GI50 [5] was ~5.5 µg/mL.
